{
  "source": "paper PMC2932872",
  "about": "(Journal of agricultural and food chemistry, 2010)",
  "key": {"SH-SY5Y cells [1]": {"test_system": "SH-SY5Y cells", "assay": "MTT viability assay", "type": "cell-based, human", "details": "for cytotoxicity (in words): 50 μM, 48 and 72 h"}, "[2]": {"assay": "Stability of ^14C-MPS and ^14C-MPO in culture media", "type": "physicochemical", "details": "1 μM; for OP recovered from the media unchanged: 72 h incubation in media, 37 °C"}, "SH-SY5Y cells [3]": {"test_system": "SH-SY5Y cells", "assay": "Preliminary uptake of ^14C-MPS and ^14C-MPO in SH-SY5Y cells", "type": "in vitro ADME, human", "details": "1 μM exposure; for share of total applied radioactivity that entered the cells: at the most"}, "SH-SY5Y cells [4]": {"test_system": "SH-SY5Y cells", "assay": "Fate in uptake experiments: OP and degradation products in cell cytosol", "type": "in vitro ADME, human", "details": "for uptake rate constant / amount of parent OP in the cytosol / total uptake (OP and degradation products): 1 μM exposure; for total uptake (OP and degradation products): 48 h (maximum); for OP associated with the membrane fraction (in words): uptake experiments; for Percentage of MPS in cell cytosol (per 10^6 cells) / Relative ratio of MPS in cell cytosol: 1 μM of OP"}, "[5]": {"assay": "Fate in uptake experiments: OP and degradation products in culture media", "type": "in vitro ADME", "details": "cells exposed to 1 μM of OP"}, "[6]": {"details": "cited from earlier work"}, "[7]": {"molecular_target": "acetylcholinesterase (AChE, EC 3.1.1.7)", "details": "cited from earlier work"}},
  "note": "Several values for one entry are separate records, joined by “and”; a condition that tells them apart may be missing. Identical values can stand only once.",
  "data": [
    {"compound": "COP(=O)(OC)Oc1ccc([N+](=O)[O-])cc1", "note": "[MPO, methyl paraoxon]", "values": [
      {"measurement": "cytotoxicity (in words)", "setting": "SH-SY5Y cells [1]", "value": "Some cytotoxicity"},
      {"measurement": "cytotoxicity", "setting": "SH-SY5Y cells [1]; 100 μM, all time points (24, 48, 72 h)", "value": "at least 60%"},
      {"measurement": "OP recovered from the media unchanged", "setting": "[2]", "value": "more than 50%"},
      {"measurement": "share of total applied radioactivity that entered the cells", "setting": "SH-SY5Y cells [3]", "value": "≤ 5", "unit": "%"},
      {"measurement": "maximum level of uptake (total amount of OP inside cells)", "setting": "SH-SY5Y cells [3]; maximum at 48 h", "value": 46, "unit": "nM"},
      {"measurement": "uptake rate constant", "setting": "SH-SY5Y cells [4]", "value": 0.025, "unit": "h⁻¹"},
      {"measurement": "amount of parent OP in the cytosol", "setting": "SH-SY5Y cells [4]; 48 h", "value": 0.37, "unit": "nM/10^6 cells"},
      {"measurement": "total uptake (OP and degradation products)", "setting": "SH-SY5Y cells [4]", "value": 1.76, "unit": "nM/10^6 cells"},
      {"measurement": "OP associated with the membrane fraction (in words)", "setting": "SH-SY5Y cells [4]", "value": "negligible amount"}
    ]},
    {"compound": "COP(=S)(OC)Oc1ccc([N+](=O)[O-])cc1", "note": "[MPS, OO, -dimethyl O-4-nitrophenyl phosphorothioate]", "values": [
      {"measurement": "cytotoxicity (in words)", "setting": "SH-SY5Y cells [1]", "value": "Some cytotoxicity"},
      {"measurement": "cell viability (in words)", "setting": "SH-SY5Y cells [1]; 100 μM, 24 h", "value": "no significant decrease in viability"},
      {"measurement": "cytotoxicity", "setting": "SH-SY5Y cells [1]; 100 μM, 24 h", "value": "4–5% and 4%"},
      {"measurement": "cytotoxicity", "setting": "SH-SY5Y cells [1]; 100 μM, 48 h", "value": "~ 60% and 60%"},
      {"measurement": "cytotoxicity", "setting": "SH-SY5Y cells [1]; 100 μM, 72 h", "value": 90, "unit": "%"},
      {"measurement": "OP recovered from the media unchanged", "setting": "[2]", "value": "more than 50%"},
      {"measurement": "^14C-MPO formed by oxidation in media", "setting": "[2]; after 4 days in media", "value": "less than 1%"},
      {"measurement": "share of total applied radioactivity that entered the cells", "setting": "SH-SY5Y cells [3]", "value": "≤ 5", "unit": "%"},
      {"measurement": "maximum level of uptake (total amount of OP inside cells)", "setting": "SH-SY5Y cells [3]; maximum at 24 h", "value": 13, "unit": "nM"},
      {"measurement": "uptake rate constant", "setting": "SH-SY5Y cells [4]", "value": 0.054, "unit": "h⁻¹"},
      {"measurement": "amount of parent OP in the cytosol", "setting": "SH-SY5Y cells [4]; 48 h", "value": 0.54, "unit": "nM/10^6 cells"},
      {"measurement": "total uptake (OP and degradation products)", "setting": "SH-SY5Y cells [4]", "value": 1.19, "unit": "nM/10^6 cells"},
      {"measurement": "Percentage of MPS in cell cytosol (per 10^6 cells)", "setting": "SH-SY5Y cells [4]; 24 h", "value": "0.036 ± 0.001", "unit": "%"},
      {"measurement": "Relative ratio of MPS in cell cytosol", "setting": "SH-SY5Y cells [4]; 24 h", "value": "45.3 ± 1.5"},
      {"measurement": "Percentage of MPS in cell cytosol (per 10^6 cells)", "setting": "SH-SY5Y cells [4]; 48 h", "value": "0.054 ± 0.006", "unit": "%"},
      {"measurement": "Relative ratio of MPS in cell cytosol", "setting": "SH-SY5Y cells [4]; 48 h, listed as 14C-MPS", "value": "46 and 45.8 ± 2.0"},
      {"measurement": "Percentage of MPS in cell cytosol (per 10^6 cells)", "setting": "SH-SY5Y cells [4]; 72 h", "value": "0.043 ± 0.004", "unit": "%"},
      {"measurement": "Relative ratio of MPS in cell cytosol", "setting": "SH-SY5Y cells [4]; 72 h", "value": "43.5 ± 1.8"},
      {"measurement": "OP associated with the membrane fraction (in words)", "setting": "SH-SY5Y cells [4]", "value": "negligible amount"},
      {"measurement": "Relative ratio of MPS in culture media", "setting": "[5]; 24 h", "value": "74.3 ± 1.0"},
      {"measurement": "Relative ratio of MPS in culture media", "setting": "[5]; 48 h", "value": "63.9 ± 0.1"},
      {"measurement": "Relative ratio of MPS in culture media", "setting": "[5]; 72 h", "value": "52.9 ± 0.8"},
      {"measurement": "Log Po/w", "setting": "[6]", "value": 3.0}
    ]},
    {"compound": "CCOP(=S)(OCC)Oc1ccc([N+](=O)[O-])cc1", "note": "[Parathion]", "values": [
      {"measurement": "IC50 (cholinesterase inhibition)", "setting": "[7]", "value": "10^−4 to 10^−5 M"}
    ]},
    {"compound": "CCOP(=O)(OCC)Oc1ccc([N+](=O)[O-])cc1", "note": "[ethyl paraoxon]", "values": [
      {"measurement": "Log Po/w", "setting": "[6]", "value": 1.6}
    ]},
    {"compound": "CCOP(=O)(OCC)Oc1ccc([N+](=O)[O-])cc1", "note": "[paraoxon]", "values": [
      {"measurement": "IC50", "setting": "[7]; read-out: IC50 (inhibition of AChE)", "value": 10, "unit": "nM"}
    ]}
  ]
}
